Source: US11013780B2, “Methods of treating female infertility” (Myovant Sciences GmbH, priority 2016, dated 2021)
Like-named read-outs stand apart in the source and are kept apart here. Where a SMILES comes first, the peptide text is derived from it. [ ]: non-standard residue; d: D form. Arg(Me) = CNC(=N)NCCC[C@H](N)C(=O)O; Hyp = O=C(O)[C@@H]1C[C@@H](O)CN1; azaGly = NNC(=O)O

Columns and labels:
serum LH, FSH, E2 = assay: Physiological effects in healthy women, follicular phase (Example 11, Part 1); format: in vivo, human
Description: The study population included healthy women, aged 18-35 years, with BMI 18-30 kg/m^2, no medical problems and not taking any medications or hormonal contraception. Three healthy, female subjects were selected and randomized and received a single dose of each of the three study regimens noted below (one regimen per study period). All women were scheduled for three Study D1 Visits (each during the follicular phase of the menstrual cycle). […] The order in which a subject receives one of the three study regimens was determined by a randomization matrix.
The study included a screening visit to collect participants' full medical history and to conduct a general medical examination and blood testing. The three study periods each consisted of three planned study visits per study period (excluding screening and follow-up). Study Day 1 (SD1) Visit of each study period occurred during the follicular phase of the menstrual cycle (days 1-4), and the SD2 and SD3 Visits occurred at 24- and 48-hrs post-dose, respectively (FIG. 14). A follow-up phone call happened 7-10 days post-dose in each study period.
Immediately following dosing, serum LH, FSH, E2 (oestradiol), P (progesterone) and SHBG levels were assessed at 30 minute intervals for up to 14 hours (FIGS. 15A-15C, 16A-16C, 17, 18, 19, 20A, and 20B). These PD variables were also assessed at 24 (Study Day 2) and 48 hours (Study Day 3) post-dose. SHBG changes less rapidly and was measured every 3 hours to reduce blood volume.
Up to 3 mL of blood volume were required for measurement of serum reproductive hormone levels (LH, FSH, E2 and P). Blood samples for serum analysis were collected in plain Vacutainer tubes (Beckton Dickson, Franklin Lakes, N.J., USA), and spun after clotting (˜1 hour at room temperature) for 10 minutes at 3000 rpm. Serum was then stored in a locked freezer at −20° C. until assay of serum reproductive hormone levels.

[1] = Single dose PK, phase 1, healthy European men; format: in vivo, human; conditions: for Tmax / half-life / CL/F / AUC(0-inf) / AUC(0-t) / Cmax / Vd/F / CL renal / dose excreted: male, human; for Tmax / half-life / CL/F / AUC(0-inf) / AUC(0-t) / Cmax / Vd/F: plasma; for Vd/F: read-out: Vz/F; for CL renal: urine and plasma, read-out: CLr (renal clearance) (converted); for dose excreted: urine
Protocol: The study was conducted in France.
Eighty-two healthy European male subjects aged 50 to 76 years were enrolled into nine cohorts. 81/82 subjects (98.8%) were white and 1/82 subject (1.2%) was black/African American. Subjects enrolled in the first six cohorts received 0.001, 0.003, 0.01, 0.03, 0.1, or 0.3 mg of API-MA or placebo by single SC bolus. In the 0.3 mg cohort, 6 subjects received API-MA and two received placebo. In the remaining cohorts, 7 subjects received API-MA and three received placebo. Subjects enrolled in the seventh, eighth, and ninth cohorts received 1, 3, or 6 mg of API-MA or placebo by single 2-hour SC infusion. In these cohorts, 6 subjects received API-MA and two received placebo.
To measure urinary excretion of API-MA, urine specimens were collected at the following nominal times: from 12 hours prior to dosing until dosing and 0 to 6, 6 to 12, 12 to 24, 24 to 48 and 48 to 72 hours postdose.
To measure urinary excretion of API-MA, urine specimens were collected at the following nominal times: from 12 hours prior to dosing until dosing and 0 to 6, 6 to 12, 12 to 24, 24 to 48, and 48 to 72 hours after the start of the infusion.

[2] = single SC 0.001 mg, geometric mean
[3] = single SC 0.003 mg, geometric mean
[4] = single SC 0.01 mg, geometric mean
[5] = single SC 0.03 mg, geometric mean
[6] = single SC 0.1 mg, geometric mean
[7] = single SC 0.3 mg, geometric mean
[8] = subcutaneous, 2-hour INF 1 mg, geometric mean
[9] = subcutaneous, 2-hour INF 3 mg, geometric mean
[10] = subcutaneous, 2-hour INF 6 mg, geometric mean
[11] = single SC 0.001 mg, only 1 subject above LLOQ

CNC(=N)NCCC[C@H](NC(=O)[C@H](CC(C)C)NC(=O)NNC(=O)[C@H](Cc1ccccc1)NC(=O)[C@@H](NC(=O)[C@H](CC(N)=O)NC(=O)[C@@H]1C[C@@H](O)CN1C(=O)[C@@H](Cc1ccc(O)cc1)NC(C)=O)[C@@H](C)O)C(=O)N[C@@H](Cc1c[nH]c2ccccc12)C(N)=O [Compound 1, 2-(N-Acetyl-D-tyrosyl-trans-4-hydroxy-L-prolyl-L-asparaginyl-L-threonyl-L-phenylalanyl)-hydrazinocarbonyl-L-leucyl-Nω-methyl-L-arginyl-L-tryptophanamide] (Ac-[dY][Hyp]NTF[azaGly]L[Arg(Me)]W-NH2)
FSH response (serum LH, FSH, E2): very low compared to the LH response
Time of peak serum LH post-dosing (serum LH, FSH, E2; 0.003 nmol/kg SC): 14 to 36 h
Duration of LH surge (serum LH, FSH, E2; 0.03 nmol/kg SC): approximately 14 hours
End of LH surge after administration (serum LH, FSH, E2; 0.03 nmol/kg SC): 28 h
Time of peak serum LH after administration (serum LH, FSH, E2; 0.03 nmol/kg SC): 18 to 20 h

CC(=O)O.CNC(=N)NCCC[C@H](NC(=O)[C@H](CC(C)C)NC(=O)NNC(=O)[C@H](Cc1ccccc1)NC(=O)[C@@H](NC(=O)[C@H](CC(N)=O)NC(=O)[C@@H]1C[C@@H](O)CN1C(=O)[C@@H](Cc1ccc(O)cc1)NC(C)=O)[C@@H](C)O)C(=O)N[C@@H](Cc1c[nH]c2ccccc12)C(N)=O [API-MA, 2-(N-Acetyl-D-tyrosyl-trans-4-hydroxy-L-prolyl-Lasparaginyl-L-threonyl-L-phenylalanyl)-hydrazinocarbonyl-L-leucyl-Nω-methyl-L-arginyl-L-tryptophanamide monoacetate] (Ac-[dY][Hyp]NTF[azaGly]L[Arg(Me)]W-NH2)
Ae(0-t) (urine) ([1]; 2-hour INF 1 mg, geometric mean (% CV)): 29971.789 (27.97) ng
Ae(0-t) (urine) ([1]; 2-hour INF 3 mg, geometric mean (% CV)): 118170.544 (41.46) ng
Ae(0-t) (urine) ([1]; 2-hour INF 6 mg, geometric mean (% CV)): 322822.342 (10.34) ng
Tmax ([1]; SC bolus, read-out: Median Tmax, range over cohorts): 0.5 to 0.75 h
half-life ([1]; sc, 0.001 mg, single SC 0.001 mg, read-out: T½ (median) (converted)): 1.8 h
half-life ([1]; sc, 0.003 mg, single SC 0.003 mg, read-out: T½ (median) (converted)): 1.43 h
half-life ([1]; sc, 0.01 mg, single SC 0.01 mg, read-out: T½ (median) (converted)): 2.17 h
half-life ([1]; sc, 0.03 mg, single SC 0.03 mg, read-out: T½ (median) (converted)): 2.61 h
half-life ([1]; sc, 0.1 mg, single SC 0.1 mg, read-out: T½ (median) (converted)): 3.08 h
half-life ([1]; sc, 0.3 mg, single SC 0.3 mg, read-out: T½ (median) (converted)): 3.45 h
CL/F ([1]; sc, 2-hour INF 1 mg, geometric mean): 380 mL/min
CL/F ([1]; sc, 2-hour INF 3 mg, geometric mean): 353 mL/min
CL/F ([1]; sc, 2-hour INF 6 mg, geometric mean): 315 mL/min
AUC(0-inf) [1, 2]: 0.0475 ng·h/mL
AUC(0-t) [1, 2]: 0.0267 ng·h/mL
CL/F [1, 2]: 351 mL/min
Cmax [1, 2]: 0.0133 ng/mL
Vd/F [1, 2]: 63.9 L
Tmax ([1]; single SC 0.001 mg, read-out: Tmax (median)): 0.5 h
AUC(0-inf) [1, 3]: 0.122 ng·h/mL
AUC(0-t) [1, 3]: 0.101 ng·h/mL
CL/F [1, 3]: 409 mL/min
Cmax [1, 3]: 0.0424 ng/mL
Vd/F [1, 3]: 55.9 L
Tmax ([1]; single SC 0.003 mg, read-out: Tmax (median)): 0.75 h
AUC(0-inf) [1, 4]: 0.371 ng·h/mL
AUC(0-t) [1, 4]: 0.345 ng·h/mL
CL/F [1, 4]: 449 mL/min
Cmax [1, 4]: 0.14 ng/mL
Vd/F [1, 4]: 85.6 L
Tmax ([1]; single SC 0.01 mg, read-out: Tmax (median)): 0.5 h
AUC(0-inf) [1, 5]: 1.11 ng·h/mL
AUC(0-t) [1, 5]: 1.07 ng·h/mL
CL/F [1, 5]: 451 mL/min
Cmax [1, 5]: 0.34 ng/mL
Vd/F [1, 5]: 96 L
Tmax ([1]; single SC 0.03 mg, read-out: Tmax (median)): 0.5 h
AUC(0-inf) [1, 6]: 3.94 ng·h/mL
AUC(0-t) [1, 6]: 3.89 ng·h/mL
CL/F [1, 6]: 423 mL/min
Cmax [1, 6]: 1.38 ng/mL
Vd/F [1, 6]: 108 L
Tmax ([1]; single SC 0.1 mg, read-out: Tmax (median)): 0.5 h
AUC(0-inf) [1, 7]: 13.2 ng·h/mL
AUC(0-t) [1, 7]: 13.2 ng·h/mL
CL/F [1, 7]: 378 mL/min
Cmax [1, 7]: 4.35 ng/mL
Vd/F [1, 7]: 114 L
Tmax ([1]; single SC 0.3 mg, read-out: Tmax (median)): 0.625 h
half-life ([1]; subcutaneous, 1 mg, 2-hour INF 1 mg, read-out: T1/2 (median) (converted)): 3.64 h
half-life ([1]; subcutaneous, 3 mg, 2-hour INF 3 mg, read-out: T1/2 (median) (converted)): 5.25 h
half-life ([1]; subcutaneous, 6 mg, 2-hour INF 6 mg, read-out: T1/2 (median) (converted)): 5.26 h
half-life ([1]; subcutaneous, 6 mg, 3 and 6 mg, read-out: Mean T1/2 at the highest doses (converted)): ~5.2 h
AUC(0-inf) [1, 8]: 43.8 ng·h/mL
AUC(0-t) [1, 8]: 43.7 ng·h/mL
Cmax [1, 8]: 13.1 ng/mL
Vd/F [1, 8]: 120 L
Tmax ([1]; subcutaneous, 2-hour INF 1 mg, read-out: Tmax (median)): 2.25 h
AUC(0-inf) [1, 9]: 141 ng·h/mL
AUC(0-t) [1, 9]: 141 ng·h/mL
Cmax [1, 9]: 39.4 ng/mL
Vd/F [1, 9]: 150 L
Tmax ([1]; subcutaneous, 2-hour INF 3 mg, read-out: Tmax (median)): 2.25 h
AUC(0-inf) [1, 10]: 318 ng·h/mL
AUC(0-t) [1, 10]: 318 ng·h/mL
Cmax [1, 10]: 82.5 ng/mL
Vd/F [1, 10]: 141 L
Tmax ([1]; subcutaneous, 2-hour INF 6 mg, read-out: Tmax (median)): 2.25 h
CL renal [1, 11]: 17500 mL/min
CL renal [1, 3]: 19700 mL/min
CL renal [1, 4]: 17900 mL/min
CL renal [1, 5]: 15600 mL/min
CL renal [1, 6]: 17500 mL/min
CL renal [1, 7]: 14300 mL/min
CL renal ([1]; subcutaneous, 2-hour INF 1 mg, geometric mean (% CV)): 11400 mL/min
CL renal ([1]; subcutaneous, 2-hour INF 3 mg, geometric mean (% CV)): 13900 mL/min
CL renal ([1]; subcutaneous, 2-hour INF 6 mg, geometric mean (% CV)): 16900 mL/min
dose excreted ([1]; sc, 0.003 to 6 mg, bolus and infusion, read-out: Fe, range over cohorts): 3.09 to 5.4%
dose excreted ([1]; sc, 2-hour INF 1 mg, geometric mean (% CV), read-out: Fe (urine)): 3%
dose excreted ([1]; sc, 2-hour INF 3 mg, geometric mean (% CV), read-out: Fe (urine)): 3.94%
dose excreted ([1]; sc, 2-hour INF 6 mg, geometric mean (% CV), read-out: Fe (urine)): 5.38%
dose excreted ([1]; single SC 0.001 mg, only 1 subject above LLOQ, read-out: Fe (urine)): 3.47%
dose excreted ([1]; single SC 0.003 mg, geometric mean, read-out: Fe (urine)): 3.97%
dose excreted ([1]; single SC 0.01 mg, geometric mean, read-out: Fe (urine)): 3.71%
dose excreted ([1]; single SC 0.03 mg, geometric mean, read-out: Fe (urine)): 3.34%
dose excreted ([1]; single SC 0.1 mg, geometric mean, read-out: Fe (urine)): 4.08%
dose excreted ([1]; single SC 0.3 mg, geometric mean, read-out: Fe (urine)): 3.77%
Ae(0-t) (urine) [1, 11]: 34.658 ng
Fe (urine) [1, 11]: 3.466%
Ae(0-t) (urine) [1, 3]: 119.177 ng
Ae(0-t) (urine) [1, 4]: 370.540 ng
Ae(0-t) (urine) [1, 5]: 1003.082 ng
Ae(0-t) (urine) [1, 6]: 4077.298 ng
Ae(0-t) (urine) [1, 7]: 11326.187 ng
